Here are results for 19 compounds from PubChem BioAssay AID2286 (Southern Research Specialized Biocontainment Screening …, 2010).

Assay [1] is described as follows: MAGI-CCR5 and HeLa-R5-16 cytotoxicity, dose response, cytotoxicity control for HIV-1 fusion inhibitor project, cell-based, MAGI and MAGI-HeLa co-culture (AID 2286).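 As to all read-outs here: cells exposed to compound for at least 64 h before ATP readout.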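 As to minimum viability: 100% = median of DMSO vehicle wells with no ATP signal meaning 0%.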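 As to viability: 100% = median of DMSO vehicle wells with no ATP signal meaning 0%.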 To be noted: MAGI-CCR5 cells viability, CellTiter-Glo ATP luminescence; for minimum viability: measured here: MAGI minimum viability across doses. (In general: In ATP-based viability assays light output follows the ATP content of the culture.)

Assay [2] relates to MAGI-CCR5 cells viability, CellTiter-Glo ATP luminescence. The description is as above.
Setting [3] is: MAGI-HeLa co-culture viability, at 50 µM, stronger effect = lower value.
The mark [4] stands for this setting: measured here: MAGI + HeLa-R5-16 co-culture viability.

Calls of active or inactive are those of the source.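 The calls were made as follows: active = minimum cell viability of 80% or lower across the dose range, counted as toxic; inactive = minimum cell viability above 80%.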

In general, viability refers to a read-out of living cells in per cent, often relative to untreated cells. In general, CC50 refers to the concentration at which the toxic effect on the cells reaches its halfway point.

Consider `O=S(=O)(Nc1nc2ccccc2nc1Nc1cccc(S(=O)(=O)N2CCCCC2)c1)c1ccccc1`, for which the viability in assay [1] (setting [3]) amounted to 23.4%. For the same compound, the minimum viability in assay [1] (at 50 µM, stronger effect = lower value) was found to be 21.9%. Also, the CC50 was 9.47 µM in assay [2] and 18.8 µM in assay [2] (setting [4]).
In assay [1] (setting [3]), `O=C(O)CN1C(=O)/C(=C\c2cc(Br)ccc2OCc2ccc([N+](=O)[O-])cc2)SC1=S` returned a viability of 24.7%. This compound also showed a minimum viability in assay [1] (at 50 µM, stronger effect = lower value) of 69.8%. For the same compound, the CC50 in assay [2] (setting [4]) worked out at 19.9 µM.
On to `COc1cc(/C=C2\SC(=O)N(Cc3ccc(F)cc3)C2=O)cc([N+](=O)[O-])c1O`, for which, in assay [1] (setting [3]), the viability was found to be 65.7%. In assay [1] (at 50 µM, stronger effect = lower value), the minimum viability worked out at 41.9%. Further, the CC50 in assay [2] was 28.7 µM; in assay [2] (setting [4]), more than 50 µM.
On to `O=C(O)CN1C(=O)/C(=C\c2cc(Br)ccc2OCc2ccc(Cl)cc2Cl)SC1=S`, for which the viability in assay [1] (setting [3]) is 37.6%; in assay [1] (at 50 µM (top of the series)) it was 93.8% (inactive). This compound displayed a minimum viability in assay [1] (at 50 µM, stronger effect = lower value) of 93.8%. Further, the CC50 in assay [2] (setting [4]) worked out at 25.6 µM.
For `O=C(Nc1cc(S(=O)(=O)N2CCCCC2)ccc1Cl)c1ccccc1NS(=O)(=O)c1ccc(F)cc1`, in assay [1] (setting [3]), the viability came out at 24.8%. Further, in assay [1] (at 12.5 µM, stronger effect = lower value), the minimum viability was determined as 19.1%. The CC50 is 2.49 µM in assay [2] and 7.38 µM in assay [2] (setting [4]).
Take `CCCCCC(=O)Cc1cc(O)cc2c1C(=O)Oc1cc(O)c(C(=O)O)c(CCCCC)c1O2`: in assay [1] (setting [3]), the viability was found to be 46.4%. The minimum viability in assay [1] (at 50 µM, stronger effect = lower value) worked out at 39.1%. Moreover, the values for the CC50 in assay [2] and in assay [2] (setting [4]) were 43.3 µM and 46.7 µM, respectively.
In the same order, the values of `CCCCCCCCCCCCCCCCn1cc[n+](CC(C)=O)c1` are 3.56%, 2.77%, 1.36 µM and 2.09 µM.
In turn, `CC(C(=O)Nc1ccc(O)c(C(=O)O)c1)N1C(=O)/C(=C/c2cccs2)SC1=S` (centres undefined) returned a viability in assay [1] (setting [3]) of 66.1%. The compound also showed a minimum viability in assay [1] (at 50 µM, stronger effect = lower value) of 51.2%. Moreover, the results for the CC50 in assay [2] and in assay [2] (setting [4]) were 46.4 µM and more than 50 µM, respectively.
In turn, `O=C(O)C1Nc2c(O)cccc2C2C=CCC12` (centres undefined) had a viability in assay [1] (setting [3]) of 21.6%. The minimum viability in assay [1] (at 50 µM, stronger effect = lower value) came to 23%. The CC50 in assay [2] was 18.6 µM; in assay [2] (setting [4]), 22.4 µM.
In the same order, the values of `O=C1/C(=C\c2ccc(O)c(O)c2)C(c2ccccc2)=NN1c1ccccc1` are 34.7%, 28.1%, 38.4 µM and 48.7 µM.
For the compound `CCOc1cc(/C=C2\C(=O)N(c3cccc(C(=O)O)c3)N=C2C(F)(F)F)ccc1OCC(=O)Nc1ccccc1OC`, the viability in assay [1] (setting [3]) is 51.6%; in assay [1] (at 25 µM (top of the series)), 88.7% (inactive). For the same compound, the minimum viability in assay [1] (at 6.25 µM, stronger effect = lower value) came out at 85.3%. Further, the CC50 in assay [2] (setting [4]) is 47.3 µM.
In assay [1] (setting [3]), `Cc1c2c(=O)n(-c3nc4ccccc4s3)nc-2cc(O)n1Cc1ccccc1` displayed a viability of 49.2%. The compound also yielded a minimum viability in assay [1] (at 50 µM, stronger effect = lower value) of 42.5%. The CC50 in assay [2] is 33.2 µM; in assay [2] (setting [4]) it was more than 50 µM.
With `O=C(O)CN1C(=O)/C(=C\c2cc(Br)ccc2OCc2ccc(Cl)cc2)SC1=S`, the viability in assay [1] (setting [3]) is 52.4%; in assay [1] (at 50 µM (top of the series)) it was 90.5% (inactive). Also, in assay [1] (at 50 µM, stronger effect = lower value), the minimum viability was found to be 90.5%. Moreover, the CC50 in assay [2] (setting [4]) came out at 48.6 µM.
Compound `CN(C)S(=O)(=O)c1cccc(-c2nn(-c3ccccc3)cc2/C=C2\SC(=S)NC2=O)c1` registered a viability in assay [1] (setting [3]) of 35.7%. The minimum viability in assay [1] (at 50 µM, stronger effect = lower value) was determined as 27.8%. Besides, the CC50 in assay [2] was 10 µM; in assay [2] (setting [4]), 25.5 µM.
In assay [1] (setting [3]), `COc1cc([N+](=O)[O-])cc(/C=C2/SC(=S)N(Cc3ccccc3)C2=O)c1O` registered a viability of 16.4%. In assay [1] (at 25 µM, stronger effect = lower value), this compound registered a minimum viability of 5.81%. The CC50 in assay [2] is 8.44 µM; in assay [2] (setting [4]) it was 29.2 µM.
In assay [1] (setting [3]), `COc1ccc(C(=O)/C=C/c2ccc(-c3ccccc3)cc2)cc1CSCC(=O)O` showed a viability of 5.69%. In addition, the minimum viability in assay [1] (at 50 µM, stronger effect = lower value) turned out to be 3.11%. The CC50 in assay [2] is 13 µM; in assay [2] (setting [4]), 23.2 µM.
Compound `O=c1cc(-c2ccccc2)nc2c(-c3ccccc3)c(C(F)(F)F)[nH]n12` came in with a viability in assay [1] (setting [3]) of 81.4%. The compound also showed a minimum viability in assay [1] (at 50 µM, stronger effect = lower value) of 53.2%. Besides, the CC50 in assay [2] was 49.1 µM.
In the case of `O=C(O)CCn1cc(/C=C/C(=O)c2ccc(Cl)cc2)c(-c2ccc(Br)cc2)n1`, in assay [1] (setting [3]), the viability was determined as 36.4%. This compound also returned a minimum viability in assay [1] (at 50 µM, stronger effect = lower value) of 11.5%. Moreover, the CC50 in assay [2] is 30.7 µM; in assay [2] (setting [4]), 45.5 µM.
With `COc1cc(/C=C2/SC(=S)NC2=O)ccc1OS(=O)(=O)c1ccc(C)cc1`, the viability in assay [1] (setting [3]) turned out to be 28.8%. Besides, the minimum viability in assay [1] (at 50 µM, stronger effect = lower value) was found to be 21.6%. Also, the CC50 in assay [2] is 12 µM; in assay [2] (setting [4]), 28.9 µM.
